Measured values from US10004701B2, “Methods and compositions for treating infection” (UNIVERSITY OF ROCHESTER, priority 2012, dated 2018).
Where a name gives a salt, the structure may show the parent alone. Read-outs that look alike come from different tables or passages of the source.

Legend:
Assay in all cases: AK assay 384-well format, Prestwick library screening
K. pneumoniae = assay type: cell-based, Klebsiella pneumoniae; conditions: 50 μM final drug concentration; for fold induction at 50 µM: Klebsiella pneumoniae, 3 h
E. coli = assay type: cell-based, Escherichia coli; conditions: 50 μM final drug concentration; for fold induction at 50 µM: Escherichia coli, 3 h
[1] = tested on: A. baumannii strain 98-37-09; assay type: cell-based, Acinetobacter baumannii; conditions: 50 μM final drug concentration; for fold induction at 50 µM: Acinetobacter baumannii, 983709, 3 h
E. faecium = assay type: cell-based, Enterococcus faecium; conditions: 50 μM final drug concentration; for fold induction at 50 µM: Enterococcus faecium, 3 h
[2] = tested on: S. aureus strain USA300-0114; assay type: cell-based, Staphylococcus aureus; conditions: 50 μM final drug concentration; for fold induction at 50 µM: Staphylococcus aureus, USA300, 3 h
E. cloacae = assay type: cell-based, Enterobacter cloacae; conditions: 50 μM final drug concentration; for fold induction at 50 µM: Enterobacter cloacae, 3 h
P. aeruginosa = assay type: cell-based, Pseudomonas aeruginosa; conditions: 50 μM final drug concentration; for fold induction at 50 µM: Pseudomonas aeruginosa, 3 h
[3] = cutoff for positive-scoring molecules 3-fold increase
[4] = planktonic, cutoff for positive-scoring molecules 3-fold increase, read-out: AK-based Prestwick Library Screening Results, K. pneumoniae (fold increase in extracellular AK activity)
[5] = planktonic, cutoff for positive-scoring molecules 3-fold increase, read-out: AK-based Prestwick Library Screening Results, E. coli (fold increase in extracellular AK activity)
[6] = planktonic, cutoff for positive-scoring molecules 3-fold increase, read-out: AK-based Prestwick Library Screening Results, A. baumannii (fold increase in extracellular AK activity)
[7] = planktonic, cutoff for positive-scoring molecules 3-fold increase, read-out: AK-based Prestwick Library Screening Results, E. faecium (fold increase in extracellular AK activity)
[8] = planktonic, cutoff for positive-scoring molecules 3-fold increase, read-out: AK-based Prestwick Library Screening Results, S. aureus (fold increase in extracellular AK activity)
[9] = planktonic, cutoff for positive-scoring molecules 3-fold increase, read-out: AK-based Prestwick Library Screening Results, E. cloacae (fold increase in extracellular AK activity)
[10] = planktonic, cutoff for positive-scoring molecules 3-fold increase, read-out: AK-based Prestwick Library Screening Results, P. aeruginosa (fold increase in extracellular AK activity)

CCO.C[C@H]1c2cccc(O)c2C(O)=C2C(=O)[C@]3(O)C(O)=C(C(N)=O)C(=O)[C@@H](N(C)C)[C@@H]3[C@@H](O)[C@@H]21.C[C@H]1c2cccc(O)c2C(O)=C2C(=O)[C@]3(O)C(O)=C(C(N)=O)C(=O)[C@@H](N(C)C)[C@@H]3[C@@H](O)[C@@H]21.Cl.Cl.O [Doxycycline hyclate]
AK-based Prestwick Library Screening Results, K. pneumoniae (fold increase in extracellular AK activity) (K. pneumoniae; [3]): 0.3
AK-based Prestwick Library Screening Results, E. coli (fold increase in extracellular AK activity) (E. coli; [3]): 2.0
AK-based Prestwick Library Screening Results, A. baumannii (fold increase in extracellular AK activity) [1, 3]: 3.4
AK-based Prestwick Library Screening Results, E. faecium (fold increase in extracellular AK activity) (E. faecium; [3]): 1.1
AK-based Prestwick Library Screening Results, S. aureus (fold increase in extracellular AK activity) [2, 3]: 9.4
AK-based Prestwick Library Screening Results, E. cloacae (fold increase in extracellular AK activity) (E. cloacae; [3]): 1.5
AK-based Prestwick Library Screening Results, P. aeruginosa (fold increase in extracellular AK activity) (P. aeruginosa; [3]): 0.7

C=C1C/C(=C/C)C(=O)O[C@@H]2CCN3CC=C(COC(=O)[C@]1(C)O)[C@H]23 [Seneciphylline]
fold induction at 50 µM (K. pneumoniae; planktonic K. pneumoniae, […], read-out: AK-based Prestwick Library Screening Results, K. pneumoniae (increase in extracellular AK activity)): 0.7
fold induction at 50 µM (E. coli; planktonic E. coli, […], read-out: AK-based Prestwick Library Screening Results, E. coli (increase in extracellular AK activity)): 0.9
fold induction at 50 µM ([1]; planktonic A. baumannii, […], read-out: AK-based Prestwick Library Screening Results, A. baumannii (increase in extracellular AK activity)): 0.8
fold induction at 50 µM (E. faecium; planktonic E. faecium, […], read-out: AK-based Prestwick Library Screening Results, E. faecium (increase in extracellular AK activity)): 0.9
fold induction at 50 µM ([2]; planktonic S. aureus, […], read-out: AK-based Prestwick Library Screening Results, S. aureus (increase in extracellular AK activity)): 0.8
fold induction at 50 µM (E. cloacae; planktonic E. cloacae, […], read-out: AK-based Prestwick Library Screening Results, E. cloacae (increase in extracellular AK activity)): 1.2
fold induction at 50 µM (P. aeruginosa; planktonic P. aeruginosa, […], read-out: AK-based Prestwick Library Screening Results, P. aeruginosa (increase in extracellular AK activity)): 0.8

C#C[C@]1(OC(C)=O)CC[C@H]2[C@@H]3CCC4=C[C@@H](OC(C)=O)CC[C@@H]4[C@H]3CC[C@@]21C [Ethynodiol diacetate]
fold induction at 50 µM (K. pneumoniae; [4]): 0.7
fold induction at 50 µM (E. coli; [5]): 0.8
fold induction at 50 µM [1, 6]: 0.9
fold induction at 50 µM (E. faecium; [7]): 0.9
fold induction at 50 µM [2, 8]: 0.5
fold induction at 50 µM (E. cloacae; [9]): 1.1
fold induction at 50 µM (P. aeruginosa; [10]): 0.9

CCCCN1CCCCC1C(=O)Nc1c(C)cccc1C (stereo not drawn) [Bupivacaine hydrochloride]
fold induction at 50 µM (K. pneumoniae; planktonic K. pneumoniae, 384-well, cutoff for positive-scoring molecules 3-fold increase, read-out: AK-based Prestwick Library Screening Results: K. pneumoniae (increase in extracellular AK activity)): 1
fold induction at 50 µM (E. coli; planktonic E. coli, 384-well, cutoff for positive-scoring molecules 3-fold increase, read-out: AK-based Prestwick Library Screening Results: E. coli (increase in extracellular AK activity)): 1.3
fold induction at 50 µM ([1]; planktonic A. baumannii, 384-well, cutoff for positive-scoring molecules 3-fold increase, read-out: AK-based Prestwick Library Screening Results: A. baumannii (increase in extracellular AK activity)): 1.4
fold induction at 50 µM (E. faecium; planktonic E. faecium, 384-well, cutoff for positive-scoring molecules 3-fold increase, read-out: AK-based Prestwick Library Screening Results: E. faecium (increase in extracellular AK activity)): 1
fold induction at 50 µM ([2]; planktonic S. aureus, 384-well, cutoff for positive-scoring molecules 3-fold increase, read-out: AK-based Prestwick Library Screening Results: S. aureus (increase in extracellular AK activity)): 1.1
fold induction at 50 µM (E. cloacae; planktonic E. cloacae, 384-well, cutoff for positive-scoring molecules 3-fold increase, read-out: AK-based Prestwick Library Screening Results: E. cloacae (increase in extracellular AK activity)): 1.5
fold induction at 50 µM (P. aeruginosa; planktonic P. aeruginosa, 384-well, cutoff for positive-scoring molecules 3-fold increase, read-out: AK-based Prestwick Library Screening Results: P. aeruginosa (increase in extracellular AK activity)): 1.2

OC(CCN1CCCCC1)(c1ccccc1)C1CC2C=CC1C2 (stereo not drawn) [Biperiden hydrochloride]
fold induction at 50 µM (K. pneumoniae; planktonic K. pneumoniae, cutoff for positive-scoring molecules 3-fold increase, read-out: AK-based Prestwick Library Screening Results, K. pneumoniae (increase in extracellular AK activity)): 0.8
fold induction at 50 µM (E. coli; planktonic E. coli, cutoff for positive-scoring molecules 3-fold increase, read-out: AK-based Prestwick Library Screening Results, E. coli (increase in extracellular AK activity)): 1
fold induction at 50 µM ([1]; planktonic A. baumannii, cutoff for positive-scoring molecules 3-fold increase, read-out: AK-based Prestwick Library Screening Results, A. baumannii (increase in extracellular AK activity)): 0.8
fold induction at 50 µM (E. faecium; planktonic E. faecium, cutoff for positive-scoring molecules 3-fold increase, read-out: AK-based Prestwick Library Screening Results, E. faecium (increase in extracellular AK activity)): 0.9
fold induction at 50 µM ([2]; planktonic S. aureus, cutoff for positive-scoring molecules 3-fold increase, read-out: AK-based Prestwick Library Screening Results, S. aureus (increase in extracellular AK activity)): 0.6
fold induction at 50 µM (E. cloacae; planktonic E. cloacae, cutoff for positive-scoring molecules 3-fold increase, read-out: AK-based Prestwick Library Screening Results, E. cloacae (increase in extracellular AK activity)): 0.9
fold induction at 50 µM (P. aeruginosa; planktonic P. aeruginosa, cutoff for positive-scoring molecules 3-fold increase, read-out: AK-based Prestwick Library Screening Results, P. aeruginosa (increase in extracellular AK activity)): 0.8

O=C(N/N=C/c1ccc([N+](=O)[O-])o1)c1ccc(O)cc1 [Nifuroxazide]
fold induction at 50 µM (K. pneumoniae; planktonic, cutoff for positive 3-fold increase, read-out: AK-based Prestwick Library Screening Results, K. pneumoniae (fold increase in extracellular AK activity)): 1.8
fold induction at 50 µM (E. coli; planktonic, cutoff for positive 3-fold increase, read-out: AK-based Prestwick Library Screening Results, E. coli (fold increase in extracellular AK activity)): 1.2
fold induction at 50 µM ([1]; planktonic, cutoff for positive 3-fold increase, read-out: AK-based Prestwick Library Screening Results, A. baumannii (fold increase in extracellular AK activity)): 1.1
fold induction at 50 µM (E. faecium; planktonic, cutoff for positive 3-fold increase, read-out: AK-based Prestwick Library Screening Results, E. faecium (fold increase in extracellular AK activity)): 1
fold induction at 50 µM ([2]; planktonic, cutoff for positive 3-fold increase, read-out: AK-based Prestwick Library Screening Results, S. aureus (fold increase in extracellular AK activity)): 0.7
fold induction at 50 µM (E. cloacae; planktonic, cutoff for positive 3-fold increase, read-out: AK-based Prestwick Library Screening Results, E. cloacae (fold increase in extracellular AK activity)): 1.5
fold induction at 50 µM (P. aeruginosa; planktonic, cutoff for positive 3-fold increase, read-out: AK-based Prestwick Library Screening Results, P. aeruginosa (fold increase in extracellular AK activity)): 1.2

O=C1OC(CN2CCOCC2)CN1/N=C/c1ccc([N+](=O)[O-])o1 (stereo not drawn) [Furaltadone hydrochloride]
fold induction at 50 µM (K. pneumoniae; [4]): 2.6
fold induction at 50 µM (E. coli; [5]): 0.9
fold induction at 50 µM [1, 6]: 1
fold induction at 50 µM (E. faecium; [7]): 1.1
fold induction at 50 µM [2, 8]: 0.7
fold induction at 50 µM (E. cloacae; [9]): 1.7
fold induction at 50 µM (P. aeruginosa; [10]): 1.1

COc1ccc(-c2cc(=O)c3c(O)cc(O)cc3o2)cc1 [Acacetin]
fold induction at 50 µM (K. pneumoniae; cutoff for positive-scoring molecules 3-fold increase, read-out: AK-based Prestwick Library Screening Results, K. pneumoniae (fold increase in extracellular AK activity)): 0.6
fold induction at 50 µM (E. coli; cutoff for positive-scoring molecules 3-fold increase, read-out: AK-based Prestwick Library Screening Results, E. coli (fold increase in extracellular AK activity)): 0.7
fold induction at 50 µM ([1]; cutoff for positive-scoring molecules 3-fold increase, read-out: AK-based Prestwick Library Screening Results, A. baumannii (fold increase in extracellular AK activity)): 0.3
fold induction at 50 µM (E. faecium; cutoff for positive-scoring molecules 3-fold increase, read-out: AK-based Prestwick Library Screening Results, E. faecium (fold increase in extracellular AK activity)): 0.5
fold induction at 50 µM ([2]; cutoff for positive-scoring molecules 3-fold increase, read-out: AK-based Prestwick Library Screening Results, S. aureus (fold increase in extracellular AK activity)): 0.7
fold induction at 50 µM (E. cloacae; cutoff for positive-scoring molecules 3-fold increase, read-out: AK-based Prestwick Library Screening Results, E. cloacae (fold increase in extracellular AK activity)): 1.6
fold induction at 50 µM (P. aeruginosa; cutoff for positive-scoring molecules 3-fold increase, read-out: AK-based Prestwick Library Screening Results, P. aeruginosa (fold increase in extracellular AK activity)): 0.6

CC=CC(=O)N(CC)c1ccccc1C [Crotamiton]
AK-based Prestwick Library Screening Results, K. pneumoniae (fold increase in extracellular AK activity) (K. pneumoniae; […]): 1.1
AK-based Prestwick Library Screening Results, E. coli (fold increase in extracellular AK activity) (E. coli; […]): 1.5
AK-based Prestwick Library Screening Results, A. baumannii (fold increase in extracellular AK activity) ([1]; […]): 1.3
AK-based Prestwick Library Screening Results, E. faecium (fold increase in extracellular AK activity) (E. faecium; […]): 1.1
AK-based Prestwick Library Screening Results, S. aureus (fold increase in extracellular AK activity) ([2]; […]): 1.3
AK-based Prestwick Library Screening Results, E. cloacae (fold increase in extracellular AK activity) (E. cloacae; […]): 1.3
AK-based Prestwick Library Screening Results, P. aeruginosa (fold increase in extracellular AK activity) (P. aeruginosa; […]): 1.3
